Assay results reported in ChEMBL document CHEMBL2069200, “Synthesis and evaluation of 4-(substituted styryl/alkenyl)-3,5-bis(4-hydroxyphenyl)-isoxazoles as ligands for the estrogen receptor” (Bioorg Med Chem Lett, 2012).

What follows are compounds tested against T1, Estrogen receptor (Homo sapiens) (UniProt P03372) (assay: Displacement of [3H]-estradiol from human ERalpha LBD expressed in Escherichia coli assessed as relative binding affinity relative to estradiol).
T1 sequence (whole entry): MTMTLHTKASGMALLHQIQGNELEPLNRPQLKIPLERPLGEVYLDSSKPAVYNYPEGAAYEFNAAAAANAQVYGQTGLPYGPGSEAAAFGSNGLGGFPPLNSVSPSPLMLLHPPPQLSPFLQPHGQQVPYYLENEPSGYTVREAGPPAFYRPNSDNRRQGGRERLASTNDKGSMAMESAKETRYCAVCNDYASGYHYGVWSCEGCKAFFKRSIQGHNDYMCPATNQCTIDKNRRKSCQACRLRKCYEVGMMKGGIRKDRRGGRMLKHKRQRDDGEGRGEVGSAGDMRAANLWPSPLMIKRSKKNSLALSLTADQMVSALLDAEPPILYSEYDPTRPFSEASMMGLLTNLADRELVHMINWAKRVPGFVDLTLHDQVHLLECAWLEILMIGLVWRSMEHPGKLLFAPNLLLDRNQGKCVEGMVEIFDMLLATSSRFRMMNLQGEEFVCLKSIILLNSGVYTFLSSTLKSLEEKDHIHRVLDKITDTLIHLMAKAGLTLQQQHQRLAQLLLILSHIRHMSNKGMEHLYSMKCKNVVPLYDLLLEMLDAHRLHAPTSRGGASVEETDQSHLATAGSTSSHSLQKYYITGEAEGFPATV

Going from Oc1ccc(-c2noc(-c3ccc(O)cc3)c2/C=C/c2cccc(O)c2)cc1 to Oc1ccc(/C=C/c2c(-c3ccc(O)cc3)noc2-c2ccc(O)cc2)cc1, the RBA rises from 8.7% to 16.4%.

First: Oc1ccc(-c2noc(-c3ccc(O)cc3)c2/C=C\c2ccccc2)cc1
Second: Oc1ccc(-c2noc(-c3ccc(O)cc3)c2/C=C/c2ccccc2)cc1
The RBA of the first is higher: 8.7% for the first, 3.5% for the second.

Compared with Oc1ccc(-c2noc(-c3ccc(O)cc3)c2/C=C/c2ccc(Cl)cc2)cc1, Oc1ccc(-c2noc(-c3ccc(O)cc3)c2/C=C/c2ccc(F)cc2)cc1 is higher in RBA: 0.8% for the first, 3.1% for the second.

Compared with CC(C)(C)/C=C/c1c(-c2ccc(O)cc2)noc1-c1ccc(O)cc1, CCCCC/C=C/c1c(-c2ccc(O)cc2)noc1-c1ccc(O)cc1 is lower in RBA: 4.3% for the first, 1.8% for the second.

First: Oc1ccc(-c2noc(-c3ccc(O)cc3)c2/C=C/c2cccc(C(F)(F)F)c2)cc1
Second: Oc1ccc(-c2noc(-c3ccc(O)cc3)c2/C=C/c2ccc(C(F)(F)F)cc2)cc1
The RBA of the first is lower: 1.5% for the first, 5.3% for the second.

First: CCc1c(-c2ccc(O)cc2)nn(-c2ccc(O)cc2)c1-c1ccc(O)cc1
Second: Oc1ccc(-c2noc(-c3ccc(O)cc3)c2-c2ccc(O)cc2)cc1
The RBA of the first is higher: 36% for the first, 30% for the second.

Compared with CCCCCCC/C=C/c1c(-c2ccc(O)cc2)noc1-c1ccc(O)cc1, CCCCCC/C=C/c1c(-c2ccc(O)cc2)noc1-c1ccc(O)cc1 is higher in RBA: 1.3% for the first, 2.5% for the second.

Cc1ccc(/C=C/c2c(-c3ccc(O)cc3)noc2-c2ccc(O)cc2)cc1 gave an RBA of 0.6%.
